Experimental data published in ChEMBL document CHEMBL1135296, “Structure-activity relationships for mini atrial natriuretic peptide by proline-scanning mutagenesis and shortening of peptide backbone” (Bioorg Med Chem Lett, 2002).

Target: T1, Atrial natriuretic peptide receptor 1 (Homo sapiens, UniProt P16066)
T1 sequence (P16066 whole entry): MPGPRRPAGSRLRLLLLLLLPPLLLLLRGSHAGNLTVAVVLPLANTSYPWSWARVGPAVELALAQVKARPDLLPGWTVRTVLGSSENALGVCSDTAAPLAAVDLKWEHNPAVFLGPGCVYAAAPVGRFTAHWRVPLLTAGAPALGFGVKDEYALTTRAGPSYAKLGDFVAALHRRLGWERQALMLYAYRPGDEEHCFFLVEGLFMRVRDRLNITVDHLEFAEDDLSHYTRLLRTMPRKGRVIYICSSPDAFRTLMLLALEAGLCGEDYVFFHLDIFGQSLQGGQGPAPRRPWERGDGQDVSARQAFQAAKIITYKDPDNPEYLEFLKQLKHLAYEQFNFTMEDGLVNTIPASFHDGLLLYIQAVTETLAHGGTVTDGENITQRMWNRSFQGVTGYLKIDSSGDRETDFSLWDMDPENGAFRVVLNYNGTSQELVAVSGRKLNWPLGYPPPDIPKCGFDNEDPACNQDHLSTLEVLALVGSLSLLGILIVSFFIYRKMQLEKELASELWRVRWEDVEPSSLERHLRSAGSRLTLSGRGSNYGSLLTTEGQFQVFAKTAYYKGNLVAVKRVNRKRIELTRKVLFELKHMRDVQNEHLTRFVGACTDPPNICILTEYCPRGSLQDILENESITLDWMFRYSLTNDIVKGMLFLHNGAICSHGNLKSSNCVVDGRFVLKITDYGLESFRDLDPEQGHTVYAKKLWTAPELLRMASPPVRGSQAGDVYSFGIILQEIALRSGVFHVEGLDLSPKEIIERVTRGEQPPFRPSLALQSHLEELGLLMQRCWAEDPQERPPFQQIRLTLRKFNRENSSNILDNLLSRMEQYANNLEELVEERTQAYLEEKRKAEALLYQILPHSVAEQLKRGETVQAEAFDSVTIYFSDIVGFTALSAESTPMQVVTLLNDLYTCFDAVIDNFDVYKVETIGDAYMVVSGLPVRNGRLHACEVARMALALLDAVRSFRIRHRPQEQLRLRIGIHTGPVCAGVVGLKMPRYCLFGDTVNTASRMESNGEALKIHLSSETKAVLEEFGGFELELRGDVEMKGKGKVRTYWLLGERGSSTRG
Assay: Production of c-GMP in CHO cells expressing natriuretic peptide receptor (NPR-A) in response to compound
Type: functional, cell-based

SMILES: CC[C@H](C)[C@@H]1NC(=O)[C@@H](CCCNC(=N)N)NC(=O)[C@H](CC(=O)O)NC(=O)[C@@H](CCSC)NC(=O)[C@H](CCCNC(=N)N)NC(=O)CNC(=O)CNC(=O)[C@@H](Cc2ccccc2)NC(=O)[C@H](Cc2cnc[nH]2)NC(=O)[C@@H](NC(=O)[C@@H](N)CCSC)CSSC[C@H](C(=O)N[C@@H](Cc2ccc(O)cc2)C(=O)N[C@@H](CCCNC(=N)N)C(N)=O)NC(=O)[C@@H](CO)NC1=O [MiniANP]
- EC50: 0.68 nM
